Source: the NIST ThermoML archive (doi:10.1016/j.fluid.2016.09.021)

Conditions: Liquid, Vibrating tube method

c1ccccc1 [benzene]
mass density [kg/m3]
Conditions	293 K	313 K	333 K	353 K	373 K	393 K	413 K	433 K	448 K	468 K
2100 kPa	877.4	857	835.1	813.1	790.7	767.6	743	716.7	696	666.9
3100 kPa	878.1	857.8	836	814.2	792.1	769.4	745.1	719.4	699.2	670.7
4100 kPa	878.8	858.7	837	815.4	793.4	770.9	747	721.8	702.1	674.3
5000 kPa	879.6	859.6	838	816.5	794.7	772.5	748.8	724	704.8	677.8
10100 kPa	883.4	863.9	842.7	822.3	801.4	780	758	735.4	717.8	693.2
20000 kPa	890.4	871.5	851.8	832.3	812.9	793	773.2	753	738	717
30000 kPa	896.9	878.7	859.4	841.2	823.1	804.5	786.2	767.8	754.2	735.1
40000 kPa	902.9	885.2	867	849.5	832.3	814.6	797.5	780.3	767.8	750.3
50000 kPa	908.6	891.6	874.2	857	840.7	824	807.8	791.6	779.8	763.6
60000 kPa	914	897.5	880.8	864.3	848.2	832.6	817.2	801.7	790.6	775.5
70000 kPa	919.6	902.9	886.7	871.2	855.7	841	825.8	811	800.3	786.1

Cc1ccccc1 [toluene]
mass density [kg/m3]
Conditions	293 K	313 K	333 K	353 K	373 K	393 K	413 K	433 K	448 K	468 K
2000 kPa	871.2	852.2	833	814.2	794.2	774.2	753.1	731.6	714.3	689.9
3000 kPa	871.9	853	834	815.2	795.4	775.7	754.9	733.6	716.6	692.7
4000 kPa	872.6	853.9	834.9	816.3	796.6	777.2	756.5	735.6	718.9	695.5
5000 kPa	873.2	854.6	835.8	817.3	797.8	778.5	758.3	737.5	721.1	698.2
10000 kPa	876.8	858.6	840.2	822.4	803.8	785.1	766.1	746.9	731.4	710.6
20000 kPa	883.4	866.1	848.2	831.5	814	797	779.5	762.1	748.5	730.4
30000 kPa	889.3	872.9	855.9	840.1	823.5	807.5	791.3	774.9	762.6	745.9
40000 kPa	895.1	879	863	847.6	832	816.9	801.6	786.5	774.7	759.3
50000 kPa	900.5	884.8	869.2	854.7	840.2	825.2	810.8	796.7	785.5	771.1
60000 kPa	905.8	890.4	875.6	861.5	847.2	833.3	819.2	805.8	795.1	781.7
70000 kPa	910.8	896	881.5	867.7	853.9	840.6	827.3	814.3	804.1	790.9
80000 kPa	915.8	901.2	887.1	873.8	860.3	847.3	834.6	822	812.3	799.8
90000 kPa	920.4	906.3	892.3	879.6	866.6	854	841.3	829.2	820	808
100000 kPa	924.8	911	897.6	884.9	872.2	860.1	848	836	827.2	815.5
110000 kPa	929.4	915.7	902.5	890.3	877.8	866	854.2	842.6	833.9	822.8
120000 kPa	933.6	920.3	907.3	895.4	883.3	871.6	860.2	848.7	840.2	829.5
130000 kPa	938	924.8	912	900.3	888.5	877.2	865.8	854.9	846.6	836
135000 kPa	939.9	927	914.2	902.6	890.8	879.8	868.5	857.7	849.6	838.9
137500 kPa	940.9	927.9	915.4	903.7	892	881	869.7	859	850.9	840.4

CCCCCCC [heptane]
mass density [kg/m3]
Conditions	293 K	313 K	333 K	353 K	373 K	393 K	413 K	433 K	448 K	468 K
2100 kPa	687.2	671.9	654.8	636.1	616.9	596.5	574.1	550.1	531.1	501.1
3000 kPa	688.1	672.9	656	637.6	618.6	598.7	577	553.9	535.6	507.8
4000 kPa	688.9	673.9	657.7	639.1	620.3	600.8	579.6	557.5	539.8	513.4
5000 kPa	689.8	674.8	658.4	640.4	622	602.8	582.1	560.7	543.6	518.6
10000 kPa	694	679.4	663.9	647.1	629.9	612.2	593.6	574.6	560	539.1
20000 kPa	701.8	688	673.8	658.5	643.2	627.8	611.9	595.4	583	566.5
30000 kPa	708.7	695.4	682.3	668	654.1	640.2	626	611.5	600.3	586.2
40000 kPa	714.8	702.2	689.5	676.7	663.6	650.8	637.6	624.3	614.4	601.3
49900 kPa	720.8	708.5	696.5	684.5	672	659.9	647.8	635.2	626.2	614.2
59900 kPa	726.4	714.3	703.1	691.3	679.6	668.3	656.9	644.7	636.6	625.3
69900 kPa	731.6	720	708.9	697.9	686.7	675.9	664.7	653.5	646.2	635.2
79900 kPa	736.8	725.2	714.5	703.8	693.3	682.9	672.4	661.6	654.4	644.1
89900 kPa	741.5	730.3	720	709.7	699.4	689.5	679.3	669	661.8	652.3
99900 kPa	746.1	735.1	725.2	715	705.2	695.7	685.8	676	669.2	659.9
109900 kPa	750.6	739.9	729.8	720.3	710.7	701.4	692.2	682.3	675.8	667.2
119900 kPa	754.9	744.3	734.7	725.3	716	706.8	698	688.5	682.3	673.9
129900 kPa	759.2	748.7	739.3	730.1	720.9	712.1	703.6	694.3	688.4	679.9
134900 kPa	761.2	751	741.4	732.4	723.3	714.7	706.2	697.2	691.4	682.8
137400 kPa	762.2	751.9	742.6	733.5	724.5	715.8	707.4	698.6	692.6	684.3
